Read-outs that look alike come from different tables or passages of the source.
Columns and labels:
[1] = system: Brown Dog Tick (Rhipicephalus sanguineus); assay: Rapid screening protocol for topical application on brown dog ticks; assay type: in vivo; details: for mortality at 5 µg/tick: Rhipicephalus sanguineus, read-out: R. sanguineus Mortality (%) 24 h; for mortality at 5 µg/tick / Rhipicephalus sanguineus Mortality (%) 24 h: topical, 24 h; for R. sanguineus Mortality (%) 48 h: Laboratory 2 F data; for Rhipicephalus sanguineus Mortality (%) 24 h: 10 μg of active per tick in 1 μL acetone, adult ticks, Laboratory 1 E data
Procedure: d) Rapid Screening Protocol for Topical Application on Brown Dog Ticks (Rhipicephalus sanguineus)
The aim of the test was to determine the presence of significant acaricidal activity in sample compounds or formulations when applied topically on brown dog ticks. A tick was defined as dead if it gave no apparent response when touched lightly and observed for 1 minute. […] Both permethrin and fipronil were employed as reference compounds. The insect species tested was the Brown Dog Tick (Rhipicephalus sanguineus). Mixed sex adult ticks were used for tests. The strain used was cultured by von Berky Veterinary Services, Woody Point, QLD, AU and supplied as unfed adult ticks (mixed sex). Ticks were maintained in controlled conditions (temp. 18°+2° C., humidity 75±5% RH).
Temperature was maintained at 25±1° C. and the humidity was ambient. […] Ticks were each treated on the abdomen with 1 μL of a single dose level of test sample in acetone; ten ticks were treated with solvent only (acetone) in each test. Tests were replicated 4 times (total of 40 ticks treated). […]

[2] = system: cat flea (Ctenocephalides felis); assay: whole plant or invertebrate; assay type: in vivo; details: Ctenocephalides felis
Outline: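 Single-dose screen at 1.26 μg/cm^2: acetone solution dried for 24 h on a Coatasil-treated 159 mm^2 flask base, then 15 adult cat fleas aged 3-7 days per flask, four or more replicates, acetone control. Percent dead, meaning not moving or unable to right themselves, recorded after 8, 24 and/or 48 h at 25 °C and 75% RH.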

[3] = 8 h, read-out: C. felis Mortality (%) 8 h, 8 h, Laboratory 2 B data
[4] = 24 h, read-out: C. felis Mortality (%) 24 h, 24 h, Laboratory 2 B data
[5] = 24 h, read-out: Ctenocephalides felis Mortality (%) 24 h
[6] = 48 h, read-out: Ctenocephalides felis Mortality (%) 48 h

Row | SMILES | mortality at 1.26 µg/cm2, 1.26 µg/cm2 [2, 3] | mortality at 1.26 µg/cm2, 1.26 µg/cm2 [2, 4] | R. sanguineus Mortality (%) 48 h [1] | further results
1 | CCC(O/N=C(\C)c1cc(Cl)ccc1NS(=O)(=O)C(F)(F)F)c1ccccc1 (stereo not drawn) [Compound 255] | 1% | 100% |  | mortality at 5 µg/tick [1]: 22%
2 | C/C(=N\Oc1ccc(F)cc1)c1ccc(C(F)(F)F)cc1NS(=O)(=O)C(F)(F)F [Compound 200, N-{2-[1-(4-fluorophenoxyimino)ethyl]-5-trifluoromethylphenyl}trifluoromethanesulfonamide] | 93% | 100% | 17% | 
3 | CCC/C(=N\OC(C)C)c1cc(Cl)ccc1NS(=O)(=O)C(F)(F)F [Compound 191] | 52% | 100% | 92% | 
4 | CC/C(=N\OCc1ccc(Cl)cc1)c1cc(Cl)ccc1N(COC(=O)C(C)(C)C)S(=O)(=O)C(F)(F)F [Compound 303] |  |  |  | Rhipicephalus sanguineus Mortality (%) 24 h [1]: 2%; mortality at 1.26 µg/cm2 [2, 5]: 0%; mortality at 1.26 µg/cm2 [2, 6]: 76%
5 | CC/C(=N\OCc1cccnc1)c1cc(Cl)ccc1NS(=O)(=O)C(F)(F)F [Compound 206] | 97% | 100% | 52% | 
6 | CCOC(=O)N(c1ccc(Cl)cc1/C(C)=N/Oc1ccc(F)cc1)S(=O)(=O)C(F)(F)F [Compound 310, N-carbonylethoxy-N-{4-chloro-2-[1-(4-fluorophenoxyimino)ethyl]phenyl}trifluoromethanesulfonamide] |  |  |  | Rhipicephalus sanguineus Mortality (%) 24 h [1]: 52%; mortality at 1.26 µg/cm2 ([2]; 8 h, single concentration 1.26 μg/cm^2 on treated glass, adult fleas, Laboratory 2 B data, read-out: Ctenocephalides felis Mortality (%) 8 h): 56%; mortality at 1.26 µg/cm2 ([2]; 24 h, single concentration 1.26 μg/cm^2 on treated glass, adult fleas, Laboratory 2 B data, read-out: Ctenocephalides felis Mortality (%) 24 h): 100%
7 | CC/C(=N\Oc1ccc(F)cc1)c1ccc(C(F)(F)F)cc1NS(=O)(=O)C(F)(F)F [Compound 214] | 98% | 100% | 20% | 
8 | C/C(=N\OCc1cccnc1)c1cc(Cl)ccc1NS(=O)(=O)C(F)(F)F [Compound 188] | 98% | 98% | 40% | 
9 | CC/C(=N\OCC(F)(F)F)c1cc(Cl)ccc1NS(=O)(=O)C(F)(F)F [Compound 184] | 100% | 100% | 92% | 
10 | CC/C(=N\OC(C)c1ccc(Cl)cc1)c1cc(Cl)ccc1NS(=O)(=O)C(F)(F)F (stereo not drawn) [Compound 257] | 5% | 96% |  | mortality at 5 µg/tick [1]: 40%
11 | CC/C(=N\OCc1ccc(Cl)cc1)c1cc(Cl)ccc1N(C(C)=O)S(=O)(=O)C(F)(F)F [Compound 307, N-acetyl-N-{4-chloro-2-[1-(4-chlorobenzyloxyimino)propyl]phenyl}trifluoromethanesulfonamide] |  |  |  | Rhipicephalus sanguineus Mortality (%) 24 h [1]: 5%; mortality at 1.26 µg/cm2 [2, 5]: 10%; mortality at 1.26 µg/cm2 [2, 6]: 98%
12 | CC(C)/C(=N\Oc1ccc(F)cc1)c1cc(Cl)ccc1NS(=O)(=O)C(F)(F)F [Compound 216] | 97% | 100% | 72% | 
13 | C/C(=N\OCc1ccc(C(F)(F)F)cc1)c1ccc(C(F)(F)F)cc1NS(=O)(=O)C(F)(F)F [Compound 219] | 69% | 100% | 60% | 
14 | C/C(=N\OCc1ccc(Cl)cc1)c1ccc(C(F)(F)F)cc1NS(=O)(=O)C(F)(F)F [Compound 218] | 90% | 100% | 75% | 
